Data taken from ChEMBL document CHEMBL3877309, “Determination of binding modes and binding constants for the complexes of 6H-pyrido[4,3-b]carbazole derivatives with DNA” (Bioorg Med Chem, 2017).
pIC50: −log10 of the molar value. Calls of active or inactive are those of the source. The calls are words filed in the database; no cut-off is given here.

What was measured:
[1] = Cytotoxicity against human HeLaS3 cells assessed as reduction in cell viability after 72 hrs by MTT assay; type: functional, cell-based; settings: HeLa S3, 72 h
[2] = Cytotoxicity against mouse Sarcoma 180 cells assessed as reduction in cell viability after 72 hrs by MTT assay; type: functional, cell-based; settings: Sarcoma-180, 72 h
[3] = Cytotoxicity against mouse NIH/3T3 cells assessed as reduction in cell viability after 72 hrs by MTT assay; type: toxicity, cell-based, NIH3T3
[4] = Binding affinity to synthetic biotin-labeled 30-mer GC-rich duplex DNA in pH 7.4 EDTA buffer solution in presence of 0.05 M NaCl at 25 degC by QCM sensogram analysis
[5] = Ratio of Ka for synthetic biotin-labeled 30-mer GC-rich duplex DNA in presence of 200 mM NaCl to Ka for synthetic biotin-labeled 30-mer GC-rich duplex DNA in presence of 50 mM NaCl
[6] = Binding affinity to synthetic biotin-labeled 30-mer GC-rich duplex DNA in pH 7.4 EDTA buffer solution in presence of 200 mM NaCl at 25 degC by QCM sensogram analysis
Salmonidae = assay: Binding affinity to salmon sperm DNA assessed as DNA intercalation at 0.04 mole fraction after 5 mins by UV-Vis spectroscopic method
[7] = Binding affinity to synthetic biotin-labeled 30-mer GC-rich duplex DNA in pH 7.4 EDTA buffer solution in presence of 50 mM NaCl at 25 degC by QCM sensogram analysis
[8] = Binding affinity to synthetic biotin-labeled 30-mer AT-rich duplex DNA in pH 7.4 EDTA buffer solution in presence of 0.05 M NaCl at 25 degC by QCM sensogram analysis
[9] = Selectivity index, ratio of IC50 for mouse NIH/3T3 cells to IC50 for mouse Sarcoma 180 cells; type: functional
HeLa S3 = assay: Selectivity ratio of IC50 for human HeLaS3 cells to IC50 for mouse Sarcoma 180 cells; type: functional
[10] = Binding affinity to synthetic biotin-labeled 30-mer GC-rich duplex DNA in pH 7.8 Tris-Hcl buffer solution assessed as dissociation rate constant in presence of 0.1 M NaCl at 25 degC by QCM sensogram analysis
[11] = Binding affinity to synthetic biotin-labeled 30-mer AT-rich duplex DNA in pH 7.8 Tris-Hcl buffer solution assessed as association rate constant in presence of 0.1 M NaCl at 25 degC by QCM sensogram analysis
[12] = Binding affinity to synthetic biotin-labeled 30-mer AT-rich duplex DNA in pH 7.8 Tris-Hcl buffer solution assessed as ratio of association rate constant to dissociation rate constant in presence of 0.1 M NaCl at 25 degC by QCM sensogram analysis
[13] = Binding affinity to synthetic biotin-labeled 30-mer GC-rich duplex DNA in pH 7.8 Tris-Hcl buffer solution assessed as association rate constant in presence of 0.1 M NaCl at 25 degC by QCM sensogram analysis
[14] = Binding affinity to synthetic biotin-labeled 30-mer GC-rich duplex DNA in pH 7.8 Tris-Hcl buffer solution assessed as ratio of association rate constant to dissociation rate constant in presence of 0.1 M NaCl at 25 degC by QCM sensogram analysis
[15] = Binding affinity to synthetic biotin-labeled 30-mer AT-rich duplex DNA in pH 7.8 Tris-Hcl buffer solution assessed as dissociation rate constant in presence of 0.1 M NaCl at 25 degC by QCM sensogram analysis
[16] = Binding affinity to synthetic biotin-labeled 30-mer AT-rich duplex DNA in pH 7.4 EDTA buffer solution assessed as association rate constant in presence of 0.05 M NaCl at 25 degC by QCM sensogram analysis
[17] = Binding affinity to synthetic biotin-labeled 30-mer GC-rich duplex DNA in pH 7.4 EDTA buffer solution assessed as association rate constant in presence of 0.05 M NaCl at 25 degC by QCM sensogram analysis
[18] = Binding affinity to synthetic biotin-labeled 30-mer AT-rich duplex DNA in pH 7.4 EDTA buffer solution assessed as dissociation rate constant in presence of 0.05 M NaCl at 25 degC by QCM sensogram analysis
[19] = Binding affinity to synthetic biotin-labeled 30-mer AT-rich duplex DNA in pH 7.4 EDTA buffer solution assessed as ratio of association rate constant to dissociation rate constant in presence of 0.05 M NaCl at 25 degC by QCM sensogram analysis
[20] = Binding affinity to synthetic biotin-labeled 30-mer GC-rich duplex DNA in pH 7.4 EDTA buffer solution assessed as dissociation rate constant in presence of 0.05 M NaCl at 25 degC by QCM sensogram analysis
[21] = Binding affinity to synthetic biotin-labeled 30-mer GC-rich duplex DNA in pH 7.4 EDTA buffer solution assessed as ratio of association rate constant to dissociation rate constant in presence of 0.05 M NaCl at 25 degC by QCM sensogram analysis

Compound	pIC50 [1]	pIC50 [2]	IC50 at 72 h [3] [µM]	Activity (Salmonidae)	further results
CNC(=O)NCCNCCNC(=O)c1c2cc[n+](C)cc2c(C)c2c1[nH]c1ccccc12	< 4.00	4.11	45	–	–
Cc1c2c[n+](CCOCCN)ccc2c(C)c2c1c1cc(O)ccc1n2C	–	–	–	Active	Ka [4]: 311 ×10⁵ /M; Ratio [5]: 0.4 to 0.5; Ka [6]: 162 ×10⁵ /M; Ka [7]: 311 ×10⁵ /M; Ka [8]: 102 ×10⁵ /M
CNC(=O)NCCNC(=O)c1c2ccncc2c(C)c2c1[nH]c1ccc(OC)cc12	5.12	–	–	–	–
Cc1c2c[n+](CCCCCN)ccc2c(C)c2c1c1cc(O)ccc1n2C.[Cl-]	–	5.85	–	Active	Ratio IC50 [9]: 3 - 24; Ratio IC50 (HeLa S3): 13 - 37
CNC(=O)NCCCCCNC(=O)c1c2cc[n+](C)cc2c(C)c2c1[nH]c1ccccc12	< 4.00	4.10	37	Active	–
Cc1c2c[n+](C)ccc2c(C(=O)NCCOCCN)c2[nH]c3ccccc3c12	< 4.00	4.32	60	Active	–
CNC(=O)NCCOCC[n+]1ccc2c(C)c3[nH]c4ccc(O)cc4c3c(C)c2c1.[Cl-]	–	5.66	5	Active	Ratio IC50 [9]: 3 - 24; Ratio IC50 (HeLa S3): 13 - 37
Cc1c2cnccc2c(C(=O)NCCCCN)c2[nH]c3ccccc3c12	–	–	–	–	Ka [4]: 0.733 ×10⁵ /M; Ka [8]: 0.279 ×10⁵ /M
CNC(=O)NCCCCNC(=O)c1c2cc[n+](C)cc2c(C)c2c1[nH]c1ccccc12	4.02	< 4.06	> 100	Active	–
CNC(=O)NCCOCCNC(=O)c1c2cc[n+](C)cc2c(C)c2c1[nH]c1ccccc12	–	4.39	18	Active	–
Cc1c2c[n+](C)ccc2c(C(=O)NCCCN)c2[nH]c3ccccc3c12	< 4.59	4.59	42	Active	–
Cc1c2c[n+](C)ccc2c(C(=O)NCCN)c2[nH]c3ccccc3c12	< 4.00	4.26	70	Active	–
COC(=O)c1c2cc[n+](CCNCCN)cc2c(C)c2c1[nH]c1ccccc12	–	5.92	1.87	Active	–
Cc1c2c[n+](C)ccc2c(C(=O)NCCNCCN)c2[nH]c3ccccc3c12	–	< 4.00	86	Active	–
COC(=O)c1c2cc[n+](CCN)cc2c(C)c2c1[nH]c1ccccc12.[Cl-]	–	6.28	0.78	Active	Ratio IC50 [9]: 3 - 24; Ratio IC50 (HeLa S3): 13 - 37
CNC(=O)NCCCNC(=O)c1c2cc[n+](C)cc2c(C)c2c1[nH]c1ccccc12	< 4.66	4.47	31	Active	–
Cc1c2cc[n+](CCOCCN)cc2c(C)c2c1[nH]c1ccccc12.[Cl-]	–	6.10	8.8	Active	Ratio IC50 [9]: 3 - 24; Ratio IC50 (HeLa S3): 13 - 37
Cc1c2cc[n+](CCOCCN)cc2c(C)c2c1[nH]c1ccc(O)cc12.[Cl-]	–	6.00	2.4	Active	Ratio IC50 [9]: 3 - 24; Ratio IC50 (HeLa S3): 13 - 37
COC(=O)c1c2cc[n+](C)cc2c(C)c2c1[nH]c1ccccc12	5.92	6.00	1.2	Active	–
Cc1c2cc[n+](CCN)cc2c(C)c2c1[nH]c1ccccc12	5.18	5.49	–	Active	–
CNC(=O)NCCOCC[n+]1ccc2c(C)c3c(c(C)c2c1)c1cc(O)ccc1n3C	–	5.57	1.6	Active	–

Compound	pIC50 [1]	pIC50 [2]	IC50 at 72 h [3] [µM]	Activity (Salmonidae)	further results
COC(=O)c1c2cc[n+](CCOCCN)cc2c(C)c2c1[nH]c1ccccc12.[Cl-]	–	5.95	1.75	Active	Ratio IC50 [9]: 3 - 24; Ratio IC50 (HeLa S3): 13 - 37
CNC(=O)NCCCCC[n+]1ccc2c(C)c3c(c(C)c2c1)c1cc(O)ccc1n3C	–	–	–	–	Ka [4]: 28.5 ×10⁵ /M; Ratio [5]: 0.4 to 0.5; Ka [6]: 17.9 ×10⁵ /M; Ka [7]: 28.5 ×10⁵ /M; Ka [8]: 15.8 ×10⁵ /M
CNC(=O)NCCOCC[n+]1ccc2c(C(=O)OC)c3[nH]c4ccccc4c3c(C)c2c1	–	–	–	Active	Ka [4]: 14.8 ×10⁵ /M; Ka [8]: 7.41 ×10⁵ /M
CNC(=O)NCCOCC[n+]1ccc2c(C)c3[nH]c4ccccc4c3c(C)c2c1	–	–	–	Active	Ka [4]: 9.9 ×10⁵ /M; Ratio [5]: 0.4 to 0.5; Ka [6]: 5.99 ×10⁵ /M; Ka [7]: 9.92 ×10⁵ /M; Ka [8]: 3.59 ×10⁵ /M
COc1ccc2[nH]c3c(C(=O)NCCN)c4cc[n+](C)cc4c(C)c3c2c1	< 4.00	4.24	–	Active	–
CNC(=O)NCCNC(=O)c1c2cc[n+](C)cc2c(C)c2c1[nH]c1ccccc12	< 4.00	< 4.00	> 100	Active	–
Cc1c2c[n+](C)ccc2c(C(=O)NCCCCCN)c2[nH]c3ccccc3c12	< 4.00	4.68	32	Active	–
Cc1c2cnccc2c(C(=O)NCCN)c2[nH]c3ccccc3c12	5.62	5.66	1.4	Active	–
Cc1c2c[n+](C)ccc2c(C(=O)NCCCCN)c2[nH]c3ccccc3c12	< 4.00	< 4.00	> 100	Active	–
Cc1c2c[n+](CCN)ccc2cc2[nH]c3ccccc3c12	–	–	–	Active	Ka [4]: 8.33 ×10⁵ /M; Ka [8]: 4.29 ×10⁵ /M
Cc1c2ccncc2c(C)c2c1[nH]c1ccc(O)cc12	–	6.36	0.9	Active	–
Cc1c2cnccc2c(C)c2c1c1ccccc1n2C	6.03	6.30	–	Active	–
CC[n+]1c(-c2ccccc2)c2cc(N)ccc2c2ccc(N)cc21	–	–	–	–	K [10]: 210 ×10⁻³ /s; K [11]: 0.17 ×10⁴ /M/s; Ratio [12]: 0.011 ×10⁶ /M; K [13]: 1.2 ×10⁴ /M/s; Ratio [14]: 0.056 ×10⁶ /M; K [15]: 150 ×10⁻³ /s
Cc1c2ccncc2c(C)c2c1[nH]c1ccccc12 [ELLIPTECINE]	5.68	5.70	0.3	Active	–
COc1ccc2[nH]c3c(C(=O)NCCN)c4ccncc4c(C)c3c2c1	5.98	–	–	–	–
Cc1c2cc[n+](C)cc2c(C)c2c1[nH]c1ccc(O)cc12	–	–	–	Active	Ka [4]: 47.2 ×10⁵ /M; K [16]: 0.78 ×10⁴ /M/s; K [17]: 1.28 ×10⁴ /M/s; K [18]: 8.05 ×10⁻³ /s; Ratio [19]: 0.97 ×10⁶ /M; K [20]: 2.01 ×10⁻³ /s; Ratio [21]: 6.37 ×10⁶ /M; Ka [8]: 35.1 ×10⁵ /M
CNC(=O)NCCNC(=O)c1c2ccncc2c(C)c2c1[nH]c1ccccc12	4.82	4.82	11	Active	–
CNC(=O)NCCCCNC(=O)c1c2ccncc2c(C)c2c1[nH]c1ccccc12	–	–	–	–	Ka [4]: 0.427 ×10⁵ /M; Ka [8]: 0.185 ×10⁵ /M
CNC(=O)NCCNC(=O)c1c2cc[n+](C)cc2c(C)c2c1[nH]c1ccc(OC)cc12	4.49	–	–	Active	–
Cc1c2cc[n+](C)cc2c(C)c2c1[nH]c1ccccc12	5.54	6.15	2	Active	–
